Results from patent US20160002174A1, “CXCR4 Antagonists for the Treatment of Medical Disorders” (Emory University, priority 2005, published 2016).
Entries after “also recorded” stand apart in the source; their conditions may differ.

Tests used:
phosphorylation of Akt = experiment: SDF-1-stimulated phosphorylation of Akt (western blot); assay type: cell-based, human; conditions: for concentration blocking Akt activation: 100 ng/ml SDF-1 for 30 minutes; for blocking of SDF-1-stimulated Akt phosphorylation (dose-dependent): MDA-MB-231 cells, 100 ng/ml SDF-1 for 30 min
From the text: FIG. 2 is an image of a western blot showing phosphorylation of Akt.
FIG. 10 is a graph and representative blot of matrigel invasion and Akt phosphorylation in cells.
(§1) CXCR4/SDF-1 interaction activates PI3K/Akt and Ras/Raf/MEK/Erk pathways in a Gαi protein (PTX-sensitive)-dependent manner.

HIV = conditions: MT-4 cells; read-out: concentration required for 50% protection of HIV-induced cytopathogenicity; cited from earlier work
Erk1/2 phosphorylation = experiment: SDF-1-stimulated Erk1/2 phosphorylation; assay type: cell-based, human; conditions: data not shown
From the text: as §1

metastatic 686LN cells = experiment: Head & Neck cancer metastasis model, 686LN cells injected through the tail vein, FDG-PET; assay type: in vivo, mice; conditions: 20 mg/mouse/twice weekly, thirty days
Procedure: The metastatic 686LN cells were injected intravenously through the tail vein to generate experimental animal models for Head & Neck cancer metastasis, modulated via CXCR4. […] These 3-D projection images show lung metastases well (bone mets and liver mets were apparent in axial section images of mice in control groups, data not shown).

[1] = test system: human umbilical vein endothelial cells (HUVECs); experiment: Endothelial capillary tube formation assay; assay type: cell-based; conditions: 100 nM, SDF-1 100 ng/ml, 18 hours
Procedure: The anti-angiogenic effect of test compounds was measured by analyzing endothelial cell growth and tube formation. The angiogenic effect of SDF-1 (100 ng/ml) on capillary formation by human umbilical vein endothelial cells (HUVECs) was examined in vitro using Matrigel-coated 24-well plates precoated with Matrigel and incubated for 18 hours. The angiogenic effect of SDF-1 was inhibited by either 100 nM TN14003 (peptide-based CXCR4 antagonist) or WZZL811S treatment (FIG. 14a, graph FIG. 14b).

[2] = test system: CXCR4/SDF-1 mediated invasion of MDA-MB-231; experiment: Matrigel invasion assay, CXCR4/SDF-1-mediated invasion; assay type: cell-based, human; conditions: MDA-MB-231, 2 nM
Procedure: FIG. 10 is a graph and representative blot of matrigel invasion and Akt phosphorylation in cells. A: Inhibition of CXCR4/SDF-1 mediated invasion of MDA-MB-231 in vitro by WZZL811S. CXCR4/SDF-1 mediated invasion of MDA-MB-231 was blocked either by 2 nM of TN14003 or WZZL811S. B: Incubating MDA-MB-231 cells with 100 ng/ml of SDF-1 for 30 min stimulated phosphorylation of Akt that blocked by WZZL811S in a dose-dependent manner
Lowering CXCR4 mRNA levels by siRNAs inhibited CXCR4/SDF-1-mediated invasion as measured by a matrigel invasion assay. The CXCR4 ligand, SDF-1 (400 ng/ml) was added to the lower chamber to attract CXCR4-positive breast cancer cells to migrate through the matrigel. The invasion of MDA-MB-231 cells transfected with siRNA1 decreased to 39±4% of the control cells, 51±8% with siRNA2, and only 16±6% with both siRNA1+2 (FIG. 3A).
WZZL811S was tested in a matrigel invasion assay to determine whether it can inhibit CXCR4/SDF-1-mediated invasion.

MT-4 cells = conditions: cited from earlier work
CXCR4 protein levels = CXCR4 protein levels in treated cells; assay type: cell-based, human
From the text: as §1

MDA-MB-231 cells = experiment: Cell viability of MDA-MB-231 cells; assay type: cell-based, human; conditions: even at 100 μM (the highest concentration tested)
SHIV = SHIV infection, p27 antigen capture; assay type: cell-based; conditions: 0.1, 1, 10 or 100 nM drug prior to infection; 2 to 5 days
Procedure: The effect of the test compounds on HIV infection in model cells was analyzed by p27 antigen capture using SHIV infected cells. Cells were incubated with 0, 0.1, 1, 10 or 100 nM drug prior to infection with SHIV. Viral titer was measured after infection by analyzing levels of p27 antigen. […] The inhibition was measurable at 2 days, and continued to 5 day incubations.

CXCR4 = CXCR4 (Homo sapiens, UniProt P61073); experiment: Competition assay using biotin-labeled TN14003 and streptavidin-conjugated rhodamine on tumor cells; assay type: binding; conditions: cells pre-incubated with different concentrations
Sequence of CXCR4 (P61073 whole entry): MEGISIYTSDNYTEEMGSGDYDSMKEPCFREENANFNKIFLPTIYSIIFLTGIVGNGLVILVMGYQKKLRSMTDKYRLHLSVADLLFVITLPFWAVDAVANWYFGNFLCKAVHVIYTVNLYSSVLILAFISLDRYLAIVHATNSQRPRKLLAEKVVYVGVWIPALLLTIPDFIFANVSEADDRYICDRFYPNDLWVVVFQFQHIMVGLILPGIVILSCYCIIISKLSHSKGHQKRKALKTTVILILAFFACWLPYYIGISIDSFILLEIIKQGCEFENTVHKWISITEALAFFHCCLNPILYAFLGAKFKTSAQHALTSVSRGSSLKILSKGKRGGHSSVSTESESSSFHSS
Procedure: FIG. 8 is images of fluorescens micrographs of stained cells. Biotin-labeled TN14003 was used to detect CXCR4 protein from the cells pre-incubated with various concentrations of WZZL811S.
Using biotin-labeled TN14003 along with streptavidin-conjugated rhodamine allowed a determination of the binding efficiency of these chemicals to the SDF-1 binding site of CXCR4 on tumor cells and compared it to AMD3100-SDF-1 interactions (FIG. 7). […] Cells were pre-incubated with different concentrations of AMD3100. […] Therefore, one of these compounds, WZZL811S, was selected to study its therapeutic potential based on potency and low toxicity to cells (FIG. 9).

[3] = cited from earlier work

Row | Molecule | concentration blocking Akt activation (phosphorylation of Akt) | blocking of SDF-1-stimulated Akt phosphorylation (dose-dependent) (phosphorylation of Akt) | EC50 (HIV) [nM] | concentration attenuating Erk1/2 phosphorylation (Erk1/2 phosphorylation) | metastasis of 686LN cells to organs (metastatic 686LN cells) | inhibition of the angiogenic effect of SDF-1 (tube formation) [1] | blocking of SDF-1-induced matrigel invasion [2] | concentration leading to 50% toxicity (MT-4 cells) [µM] | effect on CXCR4 protein levels (CXCR4 protein levels) | efficacy relative to TN14003 (metastatic 686LN cells) [%] | effect on cell viability (MDA-MB-231 cells) | inhibition of SHIV infection (p27 antigen) (SHIV) | concentration needed to compete against biotin-labeled TN14003 (CXCR4) [µM] | side effect in clinical study [3]
1 | TN14003 | sub-nano molar | blocked | 0.6 | sub-nano molar | failed to metastasize to any organs | inhibited | blocked | 410 | did not affect | – | – | – | – | –
2 | c1ccc(NCc2ccc(CNc3ccccn3)cc2)nc1 [WZZL811S] | – | blocked | – | – | – | inhibited | blocked; also recorded: as potent as TN14003 | – | – | 80 | did not decrease cell viability | inhibited SHIV infection at all concentrations tested | – | –
3 | C1=CC(CN2CCCNCCNCCCNCC2)CC=C1CN1CCCNCCNCCCNCC1 (stereo not drawn) [AMD3100] | a few nano molar | blocked | – | 100 nM | – | – | – | – | did not affect | – | – | – | 10 | cardiac-related side effect
